The NIST ThermoML archive (doi:10.1021/je900550v)
± gives the expanded uncertainty stated by the source. Each block holds one molecule with its values, some of them ahead of it.

Experiment: refractive index (Na D-line) (dimensionless)
Conditions: 101.33 kPa, Liquid, Standard Abbe refractometry

refractive index (288.15 K): 1.4579 ± 0.0005
refractive index (293.15 K): 1.4564 ± 0.0005
refractive index (298.15 K): 1.4549 ± 0.0005
refractive index (303.15 K): 1.4534 ± 0.0005
refractive index (308.15 K): 1.452 ± 0.0005
refractive index (313.15 K): 1.4504 ± 0.0005
refractive index (318.15 K): 1.4488 ± 0.0005
refractive index (323.15 K): 1.4471 ± 0.0005
Compound: CCCC(=O)[O-].C[NH2+]CCO [N-methyl-2-hydroxyethylammonium butanoate]

refractive index (288.15 K): 1.4568 ± 0.0005
refractive index (293.12 K): 1.4554 ± 0.0005
refractive index (298.19 K): 1.4538 ± 0.0005
refractive index (303.15 K): 1.4524 ± 0.0005
refractive index (308.18 K): 1.4508 ± 0.0005
refractive index (313.25 K): 1.4492 ± 0.0005
refractive index (318.15 K): 1.4474 ± 0.0005
refractive index (323.18 K): 1.4461 ± 0.0005
Compound: CCCCC(=O)[O-].C[NH2+]CCO [2-hydroxy-N-methylethanaminium pentanoate]

The next lines start with the molecule.

Compound: CCC(=O)[O-].C[NH2+]CCO [2-hydroxy-N-methylethanaminium propionate]
refractive index (288.15 K): 1.4561 ± 0.0005
refractive index (293.2 K): 1.4548 ± 0.0005
refractive index (298.2 K): 1.4534 ± 0.0005
refractive index (303.15 K): 1.452 ± 0.0005
refractive index (308.15 K): 1.4507 ± 0.0005
refractive index (313.18 K): 1.4492 ± 0.0005
refractive index (318.15 K): 1.4478 ± 0.0005
refractive index (323.15 K): 1.4464 ± 0.0005

Compound: C[NH2+]CCO.O=C[O-] [2-hydroxy-N-methylethanaminium formate]
refractive index (288.35 K): 1.4485 ± 0.0005
refractive index (293.15 K): 1.447 ± 0.0005
refractive index (298.35 K): 1.4458 ± 0.0005
refractive index (303.15 K): 1.4446 ± 0.0005
refractive index (308.23 K): 1.4429 ± 0.0005
refractive index (313.1 K): 1.4418 ± 0.0005
refractive index (318.15 K): 1.4406 ± 0.0005
refractive index (322.85 K): 1.4396 ± 0.0005

Compound: CC(=O)[O-].C[NH2+]CCO [N-methyl-2-hydroxyethylammonium acetate]
refractive index (288.25 K): 1.4518 ± 0.0005
refractive index (293.23 K): 1.4506 ± 0.0005
refractive index (298.15 K): 1.4494 ± 0.0005
refractive index (303.13 K): 1.4483 ± 0.0005
refractive index (308.13 K): 1.447 ± 0.0005
refractive index (313.05 K): 1.4457 ± 0.0005
refractive index (318.13 K): 1.4445 ± 0.0005
refractive index (323.1 K): 1.4433 ± 0.0005

Compound: CC(C)C(=O)[O-].C[NH2+]CCO [2-hydroxy-N-methylethanaminium isobutyrate]
refractive index (288.11 K): 1.4539 ± 0.0005
refractive index (293.15 K): 1.4525 ± 0.0005
refractive index (298.05 K): 1.4511 ± 0.0005
refractive index (303.05 K): 1.4496 ± 0.0005
refractive index (308.05 K): 1.4481 ± 0.0005
refractive index (313.05 K): 1.4463 ± 0.0005
refractive index (318.08 K): 1.4448 ± 0.0005
refractive index (323.15 K): 1.4433 ± 0.0005
